US20090298857A1, “Treatment of Neurodegenerative Diseases Through Inhibition of HSP90” (SLOAN-KETTERING INSTITUTE FOR CANCER RESEARCH, priority 2006, published 2009)
Several values for one entry are separate records, joined by “and”; a condition that tells them apart may be missing. Equal entries are not always repeated.

What was measured:
[1] = ref. (2); cited from earlier work
[2] = system: mTau expression and phosphorylation, subcortical brain region; assay: 30 day Hsp90 inhibitor treatment of JNPL3 mice; type: in vivo; conditions: 30 days
Procedure: To investigate whether modulation of mTau could be sustained over a longer Hsp90 inhibitor-treatment period, without being toxic to mice. JNPL3 mice were subjected for 30 days to these agents. Female JNPL3 mice 6.5 months of age (n=10) were administered i.p. vehicle (n=5) or one of the Hsp90 inhibitors, PU24FC1 (200 mg/kg) or PU-DZ8 (75 mg/kg) (n = 5), on a daily, five-times per week schedule and animals were sacrificed at 8 h following the last administered dose of inhibitor. […] Furthermore, no visible internal organ damage was detected at sacrifice upon gross inspection. Both S1 and P3 fractions extracted from the subcortical brain region of these mice were analyzed for mTau expression and phosphorylation.

P-glycoprotein = P-glycoprotein (Homo sapiens, UniProt P08183); assay: P-glycoprotein substrate status; type: in vitro ADME
Text: Another characteristic which is indicative of the ability to cross the blood brain barrier is protein binding. […] It is not sufficient for a potential neurotherapeutic agent to move across the BBB—it also has to stay in the brain long enough to exert its desired action. This means that it also has to avoid being a substrate for a variety of transport proteins that work to extrude compounds from the brain.

[3] = system: mutant tau (HT7), Hsp70, p35; assay: One dose PU-DZ8 in 6 month JNPL3 mice, S1 fraction Western blot (FIG. 9); type: in vivo; conditions: one dose 75 mg/kg IP, subcortical S1
Procedure: JNPL3 female mice 6 months of age were treated IP with the Hsp90 inhibitor PU-DZ8 (75 mg/kg) and sacrificed various times as indicated in FIG. 9. Brains were divided in subcortical and cortical regions and processed using the Greenberg and Davies extraction protocol (77). Sarkosyl soluble fractions (S1) extracted from the subcortical region were analyzed by WB for p35, cdk5, mutant tau (HT7), Hsp90 and Hsp70. Protein bands were normalized to actin and plotted as relative change from untreated mice.

[4] = system: p35 and Tau phosphorylation in cortical region; assay: One dose PU-DZ8 in hTau mice; type: in vivo; conditions: 75 mg/kg i.p.
Procedure: The majority of Tau pathology in hTau mice is located in the cortical brain region. These mice express six isoforms of non-mutant human Tau, but develop AD-like Tau-pathology. Heat-stable fractions (S1) prepared from cortical homogenates of these mice indicate an age-related accumulation of Tau phosphorylated at putative cdk5 sites. […] Aggregate-free Tau (S1) fractions were prepared from the cortical region of these mice and human Tau levels assessed by immunobloting with an antibody specific for 3-repeat domain Tau (RD3). By analogy to experiments on primary neuronal cultures and WT Tau transfected cells, the Hsp90 inhibitor had no effect on soluble WT Tau expression. […] The monoclonal antibody CP13 is commonly used to detect Tau pathology in both early and more advanced stages of Tau aggregate accumulation (41).

[5] = Assessment of PU-DZ8 brain levels by HPLC/MS/MS; type: in vivo, mice; conditions: 75 mg/kg i.p.
Procedure: Assessment of PU-DZ8 brain levels. Concentrations of compound were determined and quantitated by a MRM mode using a tandem high-performance liquid chromatography-mass/mass spectrometry (HPLC/MS/MS). A weighed piece of brain was rinsed with saline isotonic solution, dried with gauze and then homogenized in mobile phase (acetonitrile (ACN)/0.1% formic acid=1.2/2.8, v/v). Haloperidol was added as internal standard. PU-DZ8 was extracted in methylene chloride, the organic layer was separated, speedily dried under vacuum and reconstituted in the mobile phase. Compound analysis was performed in the API 4000™ LC/MS/MS (Applied Biosystems) which was coupled with a Shimadzu LC system and a 96-well plate autosampler. A Gemini C18 column (5 μ particle size, 50×4.6 mm I.D.) was used for the LC separation. The analyte was eluted under an isocratic condition for 4 min at a flow rate of 0.4 mL/min.
One dose of PU-DZ8 (75 mg/kg) was administered intraperitoneally (i.p.) to female mice of 2.5-4 months in age (n=32) and animals were sacrificed in the interval of 0 to 36 h. Both aggregate-free Tau (S1) and insoluble Tau (P3) fractions were prepared from the subcortical and cortical regions of these mice. PU-DZ8 levels in the brain reached 0.35 μg/g (˜700 nM) at 4 h, and the pharmacologically relevant dose was retained for at least 12 h post-administration (0.2 μg/g, ˜390 nM).

[6] = system: p35 and tau phosphorylation in whole brains; assay: Five day PU-DZ8 treatment of nine-month old JNPL3 mice; type: in vivo
Text: Transgenic mice: Transgenic mice, JNPL3 line (59) overexpressing mutant human tau (P301L, 4R0N) were used in this study. Mice were heterozygous and on a mixed hybrid genetic background composed of C57BL/DBA2/SW, as published in ref. 59. These mice develop NFTs in the basal telencephalon, diencephalon, brainstem, and spinal cord, with severe pathology accompanied by degeneration in the spinal cord leading to dystonia, paralysis, and death in mice >12 months in age. Nine month-old male JNPL3 mice (n=2) were treated intraperitoneally with PU-DZ8 or vehicle for 5 days. Mice were sacrificed 12 h after last treatment by cervical dislocation under anesthesia.
To further examine the effect of Hsp90 on tau phosphorylation, we used the JNPL3 line of mice expressing mutant (P301L) tau protein (59). Genetic analyses have linked mutations in the tau gene to FTDP-17 (60, 61). Over 20 distinct pathogenic mutations have been identified, with P301L as the most common mutation in tauophaties (33). […] The tau protein in JNPL3 is predominantly human and is phosphorylated at multiple sites: T181 (AT270). S202/T205 (AT8), T212 (AT100), T231 (AT180), S262, S396/S404, S409 and S422 (59, 62). […] The degree of p35 expression translated well into alleviation of phosphorylation. […] However, in mice where effects were more prominent and p35 expression declined to approximately 20% as compared to control, a significant effect on tau phosphorylation at S202/T205 and T212/S214 and a 50% reduction on T231 was observed. We could not detect a significant amount of tau phosphorylation at T181, site found to be hyperphosphorylated in PHF, tangles and neurofilaments (65). Again, whole brain expression of cdk5 was not affected (FIG. 3).

Chain of P-glycoprotein (P08183 whole entry): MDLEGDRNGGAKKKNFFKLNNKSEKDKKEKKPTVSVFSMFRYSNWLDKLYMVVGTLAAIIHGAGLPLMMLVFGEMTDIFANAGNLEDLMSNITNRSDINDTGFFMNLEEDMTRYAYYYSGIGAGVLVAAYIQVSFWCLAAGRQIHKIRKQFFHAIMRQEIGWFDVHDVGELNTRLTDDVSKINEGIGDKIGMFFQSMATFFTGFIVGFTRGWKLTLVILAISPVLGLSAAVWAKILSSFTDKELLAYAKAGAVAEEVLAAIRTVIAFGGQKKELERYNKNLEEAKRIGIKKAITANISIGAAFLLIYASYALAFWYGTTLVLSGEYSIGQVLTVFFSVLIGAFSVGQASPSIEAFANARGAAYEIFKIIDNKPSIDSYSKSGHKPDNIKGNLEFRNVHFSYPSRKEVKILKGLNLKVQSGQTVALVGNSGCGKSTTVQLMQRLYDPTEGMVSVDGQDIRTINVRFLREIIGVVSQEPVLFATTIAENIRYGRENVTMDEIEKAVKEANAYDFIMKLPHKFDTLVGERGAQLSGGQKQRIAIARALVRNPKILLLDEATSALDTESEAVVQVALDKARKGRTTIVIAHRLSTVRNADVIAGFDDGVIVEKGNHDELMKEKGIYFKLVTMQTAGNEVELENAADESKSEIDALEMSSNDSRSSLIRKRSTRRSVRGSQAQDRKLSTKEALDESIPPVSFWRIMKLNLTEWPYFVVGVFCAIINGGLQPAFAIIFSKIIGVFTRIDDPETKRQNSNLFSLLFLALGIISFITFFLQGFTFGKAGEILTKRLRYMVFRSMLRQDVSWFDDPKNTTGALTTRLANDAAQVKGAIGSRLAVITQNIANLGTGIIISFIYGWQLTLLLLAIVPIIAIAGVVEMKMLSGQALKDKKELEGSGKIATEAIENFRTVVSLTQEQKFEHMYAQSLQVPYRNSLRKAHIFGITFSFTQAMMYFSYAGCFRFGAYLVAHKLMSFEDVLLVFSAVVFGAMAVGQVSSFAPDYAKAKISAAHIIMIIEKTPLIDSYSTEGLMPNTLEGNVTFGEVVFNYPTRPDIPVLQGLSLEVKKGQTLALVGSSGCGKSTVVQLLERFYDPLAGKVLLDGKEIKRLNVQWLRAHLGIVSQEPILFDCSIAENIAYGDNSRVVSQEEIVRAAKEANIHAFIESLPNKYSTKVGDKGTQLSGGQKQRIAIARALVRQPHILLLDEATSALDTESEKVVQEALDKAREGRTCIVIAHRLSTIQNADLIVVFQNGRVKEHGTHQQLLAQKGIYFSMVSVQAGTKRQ

Q: For `CC(C)NCCCn1c(Cc2cc3c(cc2I)OCO3)nc2c(N)nc(F)nc21` [PU-DZ8], which water solubility [1] is on record?
A: water soluble

Q: What about the “p35 in S1 fraction” value [2] of the same compound?
A: p35 reduction

Q: What about the “toxicity (animal weight, fur appearance, appetite, posture)” value ([2]; daily five-times per week i.p., PU24FC1 200 mg/kg, PU-DZ8 75 mg/kg) of the same compound?
A: No toxicity was observed

Q: And the “Tau expression and phosphorylation in S1 and P3 fractions” value ([2]; hTau P<0.0001, T231 P=0.0034 (FIG. 15))?
A: significant reduction

Q: And the P-gp substrate (P-glycoprotein)?
A: not a substrate of P-pg

Q: What about the “chaperone levels (hsp70)” value [3] of the same compound?
A: hsp70 increase

Q: What about the “mutant protein mtau (HT7)” value [3] of the same compound?
A: degradation

Q: What about the p35 levels ([4]; 8 h post-administration, P=0.0019) of the same compound?
A: significant time-dependent reduction

Q: And the “Tau phosphorylation on Ser202 (antibody CP13)” value ([4]; 8 h post-administration, P=0.0078)?
A: alleviation of Tau phosphorylation

Q: And the “soluble WT Tau expression” value ([4]; hTau mice, cortical S1)?
A: no effect

Q: What about the “level in the brain” value ([5]; 4 h) of the same compound?
A: 0.35 μg/g and ~700 nM

Q: What about the “level in the brain” value ([5]; 12 h post-administration) of the same compound?
A: 0.2 μg/g and ~390 nM

Q: And the “levels of compound in brain” value ([6]; 5 days i.p.)?
A: Pharmacologically relevant levels

Q: And the “whole brain expression of cdk5” value ([6]; 5 days i.p.)?
A: not affected

Q: And the “reduction in p35 levels” value ([6]; 5 days i.p., whole brain)?
A: 50%

Q: What about the “effect on tau phosphorylation at S202/T205 (Ab AT-8)” value ([6]; at 50% reduction in p35 levels) of the same compound?
A: approximately similar effect

Q: What about the “reduction of phosphorylation on T212/S214 (Ab AT-100)” value ([6]; at 50% reduction in p35 levels) of the same compound?
A: almost completely

Q: What about the “effect on tau phosphorylated at T231 (Ab AT-180)” value ([6]; at a reduction by 50% in p35 expression) of the same compound?
A: No significant effect

Q: What about the “p35 expression as compared to control” value ([6]; mice where effects were more prominent) of the same compound?
A: approximately 20%

Q: What about the “reduction of tau phosphorylation on T231” value ([6]; mice with p35 expression approximately 20% of control) of the same compound?
A: 50%
